Reference: patent publication US12281178B2, “Tuning of pore-forming peptides for increasing pore size, membrane affinity, stability, and antimicrobial activity” (ADOLPHE MERKLE INSTITUTE, UNIVERSITY OF FRIBOURG, priority 2018, dated 2025)
Entries after “also recorded” stand apart in the source; their conditions may differ.

What was measured:
[1] = Planar lipid bilayer single channel recordings of CtxA and flexible-template CtxA-DNA assemblies; format: biochemical
Description: The lipid composition for the bilayers consisted of POPC, DOPE and POPS with a 7:3:1 (w/w) ratio (PC/PE/PS) or for the origami structures in diphytanoyl phosphatidylcholine (DiPhyPC). We dissolved the resulting lipid mixture in pentane (total lipid concentration: 10 mg/mL). The buffered electrolyte solution consisted of 1M NaCl, 10 mM HEPES, pH 7.4 or 3M CsCl, 10 mM HEPES, pH 7.4 in 30% glycerol.
We designed Teflon chambers with one big compartment (containing a maximum volume of 1.5 mL) and one small compartment (containing a maximum volume of 200 μL). We pretreated Teflon films (Eastern Scientific LLC, Rockville, MD) with apertures of 50 μm by pipetting 1 μL of pre-treatment solution—hexadecane in hexane 2.5% (v/v)—onto both sides of the aperture of the Teflon film. We then mounted the Teflon film in a Teflon chamber using high-vacuum grease (Dow Corning Corporation), separating the two compartments of the Teflon chamber. The only connection between the compartments was the aperture in the Teflon film over which we formed virtually solvent-free planar lipid bilayers using the technique described by Montal and Mueller^10. Briefly, we added electrolyte solution to both compartments (1.2 mL in the bigger compartment and 160 μL for the smaller one) and spread 1-2 μL of lipid solution onto the surface of the buffered electrolyte solution. After the solvent evaporated, a lipid monolayer (Langmuir film) formed at the air-water interface. […] We then thinned the membrane by lowering and raising the electrolyte solution in one compartment, until we measured a capacitance of 60±10 pF. To monitor capacitance, we applied a triangular voltage and the capacitance was either calculated by the amplifier or determined visually using the manual capacitance compensation of the amplifier. Prior to adding the peptide, we checked the stability of the bilayer (absence of leak currents, expected noise level) by applying transmembrane voltages of up to 200 mV for 5 min at both polarities. We used one of two different amplifiers, an EPC7 (HEKA Instruments Inc., Holliston, MA, USA) or a BC-535 (Warner Instruments Hamden, CT, USA)) and connected both compartments to the amplifier through two Ag/AgCl pellet electrodes (Warner Instruments Hamden, CT, USA). We placed the Teflon chambers inside Faraday cages, on BM4 vibration isolation platforms (Minus K® Technology, Inc., Inglewood, CA, USA). We carried out all experiments at room temperature (22±1° C.) and tested all setups with different model cells to confirm proper functionality of the amplifiers and function generators. We sampled currents at 50 kHz and low-pass 10 kHz. We analysed data using OriginLab (OriginLab Corporation, Northampton, MA, USA) and pClamp (Molecular Devices, Sunnyvale, CA, USA) software.
We performed the experiments with the peptide-DNA hybrid in two different ways: (i) we added all components sequentially—ssDNA-CtxA first, then the template strands, one after the other—or (ii) we mixed the ssDNA-CtxA with the spacer strand (with or without cholesterol) and the template strand in a DNA LoBind tube (Eppendorf Tubes, Hamburg, Germany) and let them react overnight at room temperature (pre-incubation experiments). We also performed the pre-incubation experiments with and without HPLC-SEC purification. In the case of unpurified assemblies, we added the DNA-modified peptides and the spacer strand stoichiometrically and then added the n-mer template (with n equal to 4, 6 or 8) at a ratio of 1 mole for n moles of DNA-modified peptide. When purifying the assemblies, we added the peptide-DNA monomers in excess compared to the template strand (at least 5 n moles of peptide for 1 mol of n-mer template) and removed the excess monomers using HPLC-SEC purification (Agilent SEC 3 column, 300 mm, […], 4.6 mm internal diameter). We then stored the collected assemblies at +4° C. for later use and add the spacer strand in excess prior to the experiment. […]

A549 cells = test: Cytotoxic activity: change in confluence of A549 cells over time (IncuCyte); format: cell-based
Description: We grew lung epithelial A549 cells in RPMI 1640 medium containing 25 mM HEPES, 1% L-glutamine, 10% fetal bovine serum and added 1% penicillin-streptomycin for prevention of bacterial contamination of cell cultures. We seeded the cells in 96-well plates (TPP, Trasadingen, Switzerland) with 10′000 cells per well, in a total volume of 50 uL per well. We placed the plates in the IncuCyte Zoom imaging system (Essen Bioscience, Ann Arbor, MI, USA) placed inside of an incubator set to 37° C. and 5% CO2 and monitored the growth of the cell by monitoring the change in confluence over time. We seeded the cells and left them to adhere and replicate for 20 h before adding the templated CtxA-DNA assemblies or native CtxA as control. We then measured the cell confluence every 2 h. To estimate the effect of the different peptide assemblies on the change in confluence over time, we fitted the observed confluence levels after peptide addition linearly.

[2] = applied potential difference of +180 mV

Question: Which “Minimum concentration to display significant / frequent pore formation” value [1] does the source give for “Ceratotoxin A (SIGSALKKALPVAKKIGKIALPIAKAALPVAAGLVG) [Native CtxA]” here?
Answer: 10 to 20 nM

Question: And the Pore lifetime [1]?
Answer: hundreds of milliseconds; also recorded: less than one second

Question: And the “Conductance, open state O1 (3-mer)” value [1, 2]?
Answer: 50 ± 25 pS

Question: What about the “Conductance, open state O2 (4-mer)” value [1, 2] of the same substance?
Answer: 510 ± 30 pS

Question: And the “Conductance, open state O3 (5-mer)” value [1, 2]?
Answer: 1645 ± 200 pS

Question: And the “Conductance, open state O4 (6-mer)” value [1, 2]?
Answer: 3125 ± 305 pS

Question: And the “Conductance, open state O5 (7-mer)” value [1, 2]?
Answer: 4630 ± — pS

Question: And the “Conductance, open state O6 (8-mer)” value [1, 2]?
Answer: 6600 ± — pS

Question: What about the Pore-forming activity ([1]; total peptide concentration of 5 nM, +180 mV) of the same substance?
Answer: little to no pore formation

Question: And the “Concentration necessary to reduce cell viability” value (A549 cells)?
Answer: 50 to 100 µM

Question: What about the “Total CtxA concentration sufficient to completely stop replication of the cells” value (A549 cells) of the same substance?
Answer: 100 µM
